# Results as given in patent US10485550B2, “Ophthalmic drug delivery device and methods of use” (priority 2012, dated 2019).
# Several values for one entry are separate records, joined by “and”; a condition that tells them apart may be missing. Equal entries are not always repeated.
# Test system: mouse eye
# Assay: Intraocular pressure (TonoLab) in mice after injection of ethacrynic acid, with or without healon, into the episcleral vein
# Format: in vivo
# Protocol: Basline intraocular pressures were measured in both eyes of the mouse using a TonoLab device. A piece of a latex glove was placed over the equator of the mouse eye. Initially, a glass microcannula was used to inject either (a) a solution of ethacrynic acid alone or (b) saline into the episcleral vein at the limbus of the right eye of each mouse. The solution or saline was injected until blanching was observed 360 degrees around the limbus. The piece of latex was then removed from the eye. Intraocular pressures were then measured daily and then weekly in both eyes of all mice. The ethacrynic acid injection alone produced its most profound effect at day 2; however, some effect was maintained until day 7. The results of the above protocol are provided in Table 1, and also shown in FIG. 4, where ethacrynic acid is noted as ECA (squares), saline control is BSS (triangles), and non-treated control is control (diamonds).
# Next, ethacrynic acid was combined with healon in a 3:1 ratio. Again, a glass microcannula was used to inject either the ethacrynic acid/healon solution or BSS solution as the control. The ethacrynic acid/healon solution produced its most profound effect at 2 weeks but lasted 3 weeks. The results are provided in Table 2 and also shown in FIG. 3, where ethacrynic acid/healon is designated with squares, BSS as diamonds, and non injected controls as triangles.
# [1] = ethacrynic acid injection alone, episcleral vein, mouse
compound,measurement,setting,value
"C=C(CC)C(=O)c1ccc(OCC(=O)O)c(Cl)c1Cl [ECA, [2,3-dichloro-4-(2-methylene-1-oxobutyl)phenoxy]acetic acid]",Reduction of intraocular pressure (IOP) versus control,FIG. 5,reduces intraocular pressure (IOP) greater than control
same,Animal status (mouse ECA6),"Table 1, ethacrynic acid alone, 1 wk",dead
same,"Intraocular pressure, OD, individual mouse","Table 2, ethacrynic acid combined with healon 3:1, episcleral vein injection, 1 day",14 and 13 (2×) and 9 (2×)
same,"Avg. intraocular pressure, OD","Table 2, ethacrynic acid combined with healon 3:1, episcleral vein injection, 1 day, group avg (0 hr base avg 16.6)",12.25
same,"Intraocular pressure, OD, individual mouse","Table 2, ethacrynic acid combined with healon 3:1, episcleral vein injection, 2 day",12 (2×) and 19 (2×) and 22 and 16
same,"Avg. intraocular pressure, OD","Table 2, ethacrynic acid combined with healon 3:1, episcleral vein injection, 2 day, group avg",16.8
same,"Intraocular pressure, OD, individual mouse","Table 2, ethacrynic acid combined with healon 3:1, episcleral vein injection, 5 day",13 and 8 and 17 and 14 and 16 and 10
same,"Avg. intraocular pressure, OD","Table 2, ethacrynic acid combined with healon 3:1, episcleral vein injection, 5 day, group avg",13.6
same,"Intraocular pressure, OD, individual mouse","Table 2, ethacrynic acid combined with healon 3:1, episcleral vein injection, 7 day",10 (3×) and 9 and 7 and 20
same,"Avg. intraocular pressure, OD","Table 2, ethacrynic acid combined with healon 3:1, episcleral vein injection, 7 day, group avg",11.2
same,"Intraocular pressure, OD, individual mouse","Table 2, ethacrynic acid combined with healon 3:1, episcleral vein injection, 14 day",16 and 12 and 14 and 18 (2×)
same,"Avg. intraocular pressure, OD","Table 2, ethacrynic acid combined with healon 3:1, episcleral vein injection, 14 day, group avg",15
same,"Intraocular pressure, OD, individual mouse","Table 2, ethacrynic acid combined with healon 3:1, episcleral vein injection, 21 day",16 and 7 and 14 (2×) and 8
same,"Avg. intraocular pressure, OD","Table 2, ethacrynic acid combined with healon 3:1, episcleral vein injection, 21 day, group avg",12.75
same,"Intraocular pressure, OD, individual mouse","Table 2, ethacrynic acid combined with healon 3:1, episcleral vein injection, 35 day",11 and 8 and 15 and 17 and 14
same,"Avg. intraocular pressure, OD","Table 2, ethacrynic acid combined with healon 3:1, episcleral vein injection, 35 day, group avg",12.75
same,"Intraocular pressure, OD, individual mouse","Table 2, ethacrynic acid combined with healon 3:1, episcleral vein injection, 42 day",15 and 12 (2×) and 8 and 11
same,"Avg. intraocular pressure, OD","Table 2, ethacrynic acid combined with healon 3:1, episcleral vein injection, 42 day, group avg",14.11
same,"Intraocular pressure, OD, individual mouse","Table 2, ethacrynic acid combined with healon 3:1, episcleral vein injection, 56 day",13 and 10 (2×) and 7 and 17
same,"Avg. intraocular pressure, OD","Table 2, ethacrynic acid combined with healon 3:1, episcleral vein injection, 56 day, group avg",13.47
same,"Intraocular pressure, OD, individual mouse","Table 2, ethacrynic acid combined with healon 3:1, episcleral vein injection, 64 day",16 and 12 and 9 and 15 and 14
same,"Avg. intraocular pressure, OD","Table 2, ethacrynic acid combined with healon 3:1, episcleral vein injection, 64 day, group avg",13.83
same,"Intraocular pressure, OD, individual mouse","Table 2, ethacrynic acid combined with healon 3:1, episcleral vein injection, 74 day (first 74 day column pair)",19 and 14 and 17 and 18
same,"Avg. intraocular pressure, OD","Table 2, ethacrynic acid combined with healon 3:1, episcleral vein injection, 74 day (first 74 day column pair), group avg",17
same,"Intraocular pressure, OD, individual mouse","Table 2, ethacrynic acid combined with healon 3:1, episcleral vein injection, 74 day (second 74 day column pair)",17 and 11 and 16 (2×)
same,"Avg. intraocular pressure, OD","Table 2, ethacrynic acid combined with healon 3:1, episcleral vein injection, 74 day (second 74 day column pair), group avg",19
same,Animal status (mouse ECA6),"Table 2, 14 day",dead
same,"Intraocular pressure, OD, individual mouse","ethacrynic acid alone, episcleral vein injection right eye, 1 wk",16 and 12 and 14 and 18
same,"Avg. intraocular pressure, OD","ethacrynic acid alone, episcleral vein injection right eye, 1 wk, group avg (0 hr base avg 16.6)",15
same,"Intraocular pressure, OD, individual mouse","ethacrynic acid alone, episcleral vein injection right eye, 1 day",14 and 13 (2×) and 9
same,"Avg. intraocular pressure, OD","ethacrynic acid alone, episcleral vein injection right eye, 1 day, group avg (0 hr base avg 16.6)",12.25
same,"Intraocular pressure, OD, individual mouse","ethacrynic acid alone, episcleral vein injection right eye, 2 day",12 (2×) and 19 (2×) and 22
same,"Avg. intraocular pressure, OD","ethacrynic acid alone, episcleral vein injection right eye, 2 day, group avg (0 hr base avg 16.6)",16.8
same,"Intraocular pressure, OD, individual mouse","ethacrynic acid alone, episcleral vein injection right eye, 5 day",13 and 8 and 17 and 14 and 16
same,"Avg. intraocular pressure, OD","ethacrynic acid alone, episcleral vein injection right eye, 5 day, group avg (0 hr base avg 16.6)",13.6
same,"Intraocular pressure, OD, individual mouse","ethacrynic acid alone, episcleral vein injection right eye, 6 day",10 (2×) and 9 and 7 and 20
same,"Avg. intraocular pressure, OD","ethacrynic acid alone, episcleral vein injection right eye, 6 day, group avg (0 hr base avg 16.6)",11.2
same,Effect on intraocular pressure maintained until,[1],7 days
same,Time of most profound effect on intraocular pressure,[1],2 days
